Test results reported in US8501721B2, “Postprandial hyperglycemia-improving agent” (Kao Corporation, priority 2009, dated 2013).

Tested on: Wistar rats
Test: Postprandial maximum increase of blood glucose in rat after oral administration of cooked white rice and triolein
Assay type: in vivo
Settings: for Postprandial maximum increase of blood glucose (maximum increase value from initial value, relative value based on 100 for control group): with 2 mg white rice and 1.5 μg triolein per g body weight, fasted male Wistar rats, average±standard error
Description: To white rice (Koshihikari produced in Tochigi prefecture), water (1.5 times equivalent to the volume of the white rice) was added to allow the rice to absorb the water for 30 minutes. Then, the rice was cooked with a rice cooker (ZOJIRUSHI microcomputer-controlled rice cooker NS-KG05, manufactured by Zojirushi Corporation). Water and triolein (manufactured by Sigma-Aldrich Corporation) were added to the cooked rice, followed by homogenization until the mixture was sufficiently homogenized, thereby yielding a sample for administration. The sample for administration was orally probe-administered to a group at 2 mg of white rice per g body weight and 1.5 μg of triolein per g body weight (the group as a control group). Each of the purified cycloartenol produced in Example 1 described above was added to a sample for administration (dissolved in triolein). Each of the resultants was orally probe-administered to a group at 2 mg of white rice per g body weight, 1.5 μg of triolein per g body weight, and 0.075 μg, or 0.15 μg, of cycloartenol equivalent per g body weight (the groups as Test group 1 and 2). Further, purified 24-methylenecycloartanol was added to a sample for administration (dissolved in triolein). The resultant was orally probe-administered to a group at 2 mg of white rice per g body weight, 1.5 μg of triolein per g body weight, and 0.15 μg of 24-methylenecycloartanol equivalent per g body weight (the group as Comparative group).
8-week old male Wistar rats (supplied by Japan SLC Inc.), after 15 hours of fasting, were divided into groups each consisting of 10 rats with their body weight being almost the same between the groups. Immediately after the administration to each group, blood sample was collected from tail vein sequentially. The blood sample was measured for its blood glucose level by using ACCU-CHEK AVIVA (manufactured by Roche Diagnostics GmbH) to calculate the maximum increase of blood glucose.
Results are represented as average±standard error, and statistical significant differences between groups were determined by the Dunnett's test with respect to the control group (*p <0.05).

[1] = 0.15 μg per g body weight, *p<0.05 vs control (Dunnett)

Compound | Postprandial maximum increase of blood glucose (maximum increase value from initial value, relative value based on 100 for control group) [1] | postprandial increase of blood glucose (result in words) (0.075 μg per g body weight, rat) | Postprandial maximum increase of blood glucose (maximum increase value from initial value, relative value based on 100 for control group) (0.075 μg per g body weight) | postprandial increase of blood glucose (result in words) (0.15 μg per g body weight, rat) | effect of inhibiting the postprandial increase of blood glucose compared with 24-methylenecycloartanol (rat, comparison at 0.15 μg per g body weight)
C=C(CC[C@@H](C)[C@H]1CC[C@@]2(C)[C@@H]3CC[C@H]4C(C)(C)[C@@H](O)CC[C@@]45C[C@@]35CC[C@]12C)C(C)C [24-methylenecycloartanol, reference compound] | 89.25 ± 4.32 relative value based on 100 for control group |  |  |  | 
CC(C)=CCC[C@@H](C)[C@H]1CC[C@@]2(C)[C@@H]3CC[C@H]4C(C)(C)[C@@H](O)CC[C@@]45C[C@@]35CC[C@]12C [cycloartenol] | 79.74 ± 7.71* relative value based on 100 for control group | tended to be decreased | 92.03 ± 3.16 relative value based on 100 for control group | significantly inhibited | stronger than that of 24-methylenecycloartanol
